Data as given in the RepoRT retention time repository.

Experiment: Agilent ZORBAX 300 SB-C18, 150 × 1 mm, 3.5 µm; A: water + 0.01% heptafluorobutyric acid; B: acetonitrile + 0.01% heptafluorobutyric acid; gradient (min/%B) 0/0 100/90
Details: stereoisomer not certain
For `CCSc1cccc2cccnc12`, the LC retention time was 11.7 min. `CC(C(=O)O)n1cccc1` (stereo unspecified) showed an LC retention time of 8.41 min. `CC[N+](C)(CC)CC` gave an LC retention time of 6.48 min. With `Nc1ccc(CCc2ccncc2)cc1` the LC retention time was 7.22 min. Work on `C#CC1(N)CCCCC1` yielded an LC retention time of 7.77 min. Compound `Cc1ccc(C(=O)Nc2ccc3[nH]c4c(c3c2)CCCC4)cc1` has an LC retention time of 15.1 min. For `O=c1[nH][nH]c2c1CCCC2`, the LC retention time was 7.38 min. Compound `Nc1cccc2cc(-c3ccccc3)oc12` has an LC retention time of 14.5 min. Work on `NC1Cc2ccccc2NC1=O` (stereo unspecified) yielded an LC retention time of 7.26 min. `Cc1ccc(NC2=NCC(C)S2)cc1C` (stereo unspecified) gave an LC retention time of 9.88 min. `c1ccc(CN2CCN(Cc3ccncc3)CC2)nc1` showed an LC retention time of 7.31 min. With `Cc1cc(N)c2ccccc2[n+]1CCCCCCCCCC[n+]1c(C)cc(N)c2ccccc21` the LC retention time was 10.7 min. In the case of `CC(C)c1ccc(CC(NC(=O)c2ccccc2)C(=O)NCC(=O)O)cc1` (stereo unspecified), the LC retention time is reported as 12.5 min. `Nc1ccc(C(=O)NN=Cc2cccc3ccccc23)cc1` showed an LC retention time of 11.6 min. For `O=c1[nH]c(-c2ccccc2)cn1C1CCNCC1`, the LC retention time was 8.03 min. `CC(=O)Nc1ccc(C(=O)NCCc2c[nH]c3ccc(C)cc23)cc1` gave an LC retention time of 11.1 min. With `O=C1CCC=C1CSc1ccccc1` the LC retention time was 13.1 min. `O=C(NCc1cccnc1)c1cccc2ccccc12` showed an LC retention time of 9.17 min. `S=C1NCN(Cc2ccccc2)CN1` gave an LC retention time of 8.28 min. In the case of `NC(=O)NCCCC(N)C(=O)O` (stereo unspecified), the LC retention time is reported as 1.71 min. For `CCCCNC`, the LC retention time was 7.29 min. Compound `Cc1cc(C)c2c(=O)n(CC(=O)NCCCc3ccccc3)c(=O)n(C)c2n1` has an LC retention time of 14.1 min. In the case of `Nc1ncnc(N2CCCc3ccccc32)n1`, the LC retention time is reported as 9.57 min. `CCCCc1ccc(-n2c(CCC(=O)O)ccc2-c2ccccc2)cc1` showed an LC retention time of 18.1 min. `CNC(=O)c1ccc(N)cc1` gave an LC retention time of 6.25 min. `O=C(NC(Cc1ccccc1)C(=O)NCc1ccco1)c1ccccc1` (stereo unspecified) showed an LC retention time of 12.8 min. `N=c1c2c3c(sc2ncn1N)CCC3` showed an LC retention time of 8.21 min. With `Cc1cnc[nH]1` the LC retention time was 5.66 min. For `COc1cccc2c1NC(CCc1ccccc1N)CC2` (stereo unspecified), the LC retention time was 12.1 min. With `CC(=O)Oc1ccc(-c2cnc3ccccc3n2)cc1` the LC retention time was 13.9 min. Work on `c1cncc(N2CCN(c3cccnc3)CC2)c1` yielded an LC retention time of 7.33 min. `CN(C)C(=O)Oc1cc(OC(=O)N(C)C)cc(C(O)CNC(C)(C)C)c1` (stereo unspecified) showed an LC retention time of 9.59 min. In the case of `Cc1cccc(NC(=S)NNC(=O)c2cccc(C)c2)c1`, the LC retention time is reported as 12.3 min. Work on `Cc1nnc(NN=Cc2ccc(N(C)C)cc2)[nH]c1=O` yielded an LC retention time of 9.86 min. Compound `Cc1ccc(C=CC(=O)c2ccccc2O)cc1` has an LC retention time of 16.1 min. With `O=C(O)C1CCCN(CCc2ccccc2)C1` (stereo unspecified) the LC retention time was 8.36 min. `Nc1ncccn1` showed an LC retention time of 5.83 min. With `Cc1cc(C=O)c(C)n1C(C)C` the LC retention time was 11.1 min. Work on `CCCNC(=O)c1c[nH]c2ccccc12` yielded an LC retention time of 9.96 min. For `CCn1cc(-c2ccn[nH]2)c(C)n1`, the LC retention time was 8.21 min. Work on `COc1ccc(N2CCCC2=O)cc1` yielded an LC retention time of 9.78 min. Work on `CN1CCn2c1nc(N1CCOCC1)nc2=O` yielded an LC retention time of 7.25 min. In the case of `CC(=O)N(C)C1=C(N2CCCC2)C(=O)c2ccccc2C1=O`, the LC retention time is reported as 11.2 min. Compound `CNC(=O)c1cc2c(n(-c3ccccc3)c1=O)CCCC2=O` has an LC retention time of 9.8 min. `Cc1cncc(C)c1` showed an LC retention time of 6.88 min. With `NCCNCCNCCN` the LC retention time was 7.5 min. `Cn1cccc1C=NNC(=O)CCCC(=O)NN=Cc1cccn1C` showed an LC retention time of 10.2 min. With `c1ccnnc1` the LC retention time was 4.58 min. In the case of `CC(CCc1ccc(O)cc1)NCC(O)c1ccc(O)cc1` (stereo unspecified), the LC retention time is reported as 8.93 min. `O=C(Nc1ccccc1)C(=O)NC(CO)(CO)CO` showed an LC retention time of 8.16 min. In the case of `Cc1c[n+](C)c(C)cc1-c1ccccc1`, the LC retention time is reported as 9.13 min. `CC(C)(C)NCCNC(C)(C)C` showed an LC retention time of 7.46 min. Work on `COc1ccc2c(c1)C(C)N1C(=O)c3ccccc3C1O2` (stereo unspecified) yielded an LC retention time of 13.9 min. In the case of `Cc1c(-c2ccccc2)cc(-c2ccccc2)nc1-c1ccccc1`, the LC retention time is reported as 19.2 min. In the case of `C1CCC(NC2CCCCC2)CC1`, the LC retention time is reported as 9.69 min. With `O=C(O)CNC(CO)(CO)CO` the LC retention time was 1.66 min. For `CC(=O)NC(Cc1ccc(O)cc1)C(N)=O` (stereo unspecified), the LC retention time was 6.07 min. For `Cc1cc(C)n(CCO)c(=O)n1`, the LC retention time was 5.92 min. `CC(N)CCCC(C)(C)O` (stereo unspecified) gave an LC retention time of 7.64 min. `Cc1ccc(N2C(=O)NC(=O)C(=Cc3cc(C)n(-c4ccccc4)c3C)C2=O)cc1` showed an LC retention time of 15 min. Work on `CN(c1nc(-c2ccc(C(C)(C)C)cc2)nc2ccccc12)C1CCCCC1` yielded an LC retention time of 15.8 min. In the case of `CC1=NCCC1`, the LC retention time is reported as 4.35 min. With `Cc1ccc2[nH]c(=O)c(=O)[nH]c2c1C` the LC retention time was 8.13 min. `NC1c2ccccc2CC1O` (stereo unspecified) gave an LC retention time of 7.28 min. `CCc1ccc(NCCC(=O)c2ccc3c(c2)Cc2ccccc2-3)cc1` showed an LC retention time of 16.3 min. For `Cn1c(=N)n(CC(=O)c2ccccc2)c2ccccc21`, the LC retention time was 10 min. `O=C1C(=Cc2ccoc2)CCCC1=Cc1ccoc1` gave an LC retention time of 15.7 min. Compound `Cc1ccc(NC(=S)NN=C2CCN(C(C)C)CC2)cc1` has an LC retention time of 9.64 min. In the case of `NC(CO)(CO)CO`, the LC retention time is reported as 2.86 min. For `CC(C)NCC(O)COc1ccc(CCOCC2CC2)cc1` (stereo unspecified), the LC retention time was 10.7 min. `CNC1C(OC2OC(CO)C(N)C(O)C2O)OC2CC(N)C(OC3C(N)CC(N)C(O)C3O)OC2C1O` (stereo unspecified) gave an LC retention time of 8.39 min. For `Cc1ccc(N(C)C)cc1`, the LC retention time was 8.12 min. Compound `CC1(C)CC(=NNC(=O)C(=O)NN=C2CC(C)(C)NC(C)(C)C2)CC(C)(C)N1` has an LC retention time of 7.32 min. `CNCC(O)c1cccc(O)c1` (stereo unspecified) showed an LC retention time of 7.2 min. In the case of `Cn1c2ccccc2c2nc3ccccc3nc21`, the LC retention time is reported as 14.5 min. For `Cc1cc(C)c2ccc3ccccc3c2n1`, the LC retention time was 12.4 min. `COc1ccc(N(C)C(=O)c2cccc(C(=O)N(C)c3ccc(OC)cc3)c2)cc1` gave an LC retention time of 12.6 min. Compound `Cc1ccc(-n2c(O)c(C=Nc3ccc(O)cc3C)c(=O)[nH]c2=O)cc1` has an LC retention time of 10.9 min. Work on `Nc1ccc2[nH]ccc2c1` yielded an LC retention time of 7.01 min. Work on `CCN1CCNCC1` yielded an LC retention time of 6.67 min. For `CCOc1ccc(C=CC(=O)c2ccc(C)cc2)cc1`, the LC retention time was 17.8 min. For `O=c1[nH]c2cc[nH]c(=O)c2[nH]1`, the LC retention time was 2.62 min. In the case of `Cc1ccc(-c2cnc3ccccc3[n+]2C)c(C)c1`, the LC retention time is reported as 10.4 min. With `O=c1c2ccccc2nnn1Cc1ccncc1` the LC retention time was 8.31 min. `CC(=O)NCC(NC(C)=O)C(C)(C)C` (stereo unspecified) showed an LC retention time of 7.28 min. `Cc1[nH]c(C=O)c(C)c1C` gave an LC retention time of 10.3 min. With `CC(C)CN` the LC retention time was 6.34 min. `CN(C)CCCN1c2ccccc2Sc2ccccc21` showed an LC retention time of 11.3 min. `O=C1CCCc2c1[nH]c1ccccc21` gave an LC retention time of 12.3 min. `CC(C)(C(=O)O)c1ccc(C(O)CCCN2CCC(C(O)(c3ccccc3)c3ccccc3)CC2)cc1` (stereo unspecified) gave an LC retention time of 11.5 min. Compound `Cc1ccc(-c2cc3ccccc3[nH]2)c(C)c1` has an LC retention time of 17.6 min. `c1cncc(Cn2cccc2)c1` showed an LC retention time of 8.31 min. With `O=C(C[n+]1ccccc1)C1CC1` the LC retention time was 6.91 min. With `CCCCN=CC1=C(O)CC(c2ccccc2)CC1=O` (stereo unspecified) the LC retention time was 13.3 min. `O=C(O)Cc1c(C(=O)O)[nH]c2cc(C(=O)O)ccc12` showed an LC retention time of 7.47 min. `Cc1ccncn1` showed an LC retention time of 6.89 min. `CC1CCN(C(=O)C2CCCNC2)CC1` (stereo unspecified) gave an LC retention time of 8.27 min. In the case of `CCOc1ccc(C(=O)NNC(=O)COc2ccc(C(C)CC)cc2)cc1` (stereo unspecified), the LC retention time is reported as 15 min. Compound `COc1ccc2c(=O)c(C)c(-c3ccccc3)oc2c1CN(C)C` has an LC retention time of 10.1 min. For `Cn1c(=O)n(C)c(=O)n(CC(=O)N2CCCCC2)c1=O`, the LC retention time was 8.88 min. For `Cc1nn(CC(=O)NCc2ccccn2)c(=O)c2ccccc12`, the LC retention time was 8.37 min. Compound `COc1ccc(OC)c(C(=O)C=Cc2ccc(OC)c(OC)c2OC)c1` has an LC retention time of 15.2 min. Compound `Cn1cnc2ccccc21` has an LC retention time of 7.26 min. In the case of `CCc1cnccn1`, the LC retention time is reported as 8.09 min. In the case of `CC(C)c1ccc(C(=O)CCN(C)C)cc1`, the LC retention time is reported as 9.8 min. With `O=C(C=Cc1ccco1)c1ccccc1` the LC retention time was 14.5 min. Work on `C=CC1CN2CCC1CC2C(O)c1ccnc2ccccc12` (stereo unspecified) yielded an LC retention time of 8.84 min. Compound `CNC(C)=O` has an LC retention time of 2.1 min. With `Cc1ccccn1` the LC retention time was 6.01 min. For `CCCNCc1ccc2c(c1)n(C)c(=O)n2C`, the LC retention time was 7.81 min. `c1ccc(C2CN3CCSC3=N2)cc1` (stereo unspecified) showed an LC retention time of 8.73 min. Work on `Oc1ccc2cccc(-n3cccc3)c2c1` yielded an LC retention time of 14.1 min. In the case of `CCCCC(N)=O`, the LC retention time is reported as 6.86 min. In the case of `Cc1ccc2[nH]c(-c3cc[n+](C)cc3)cc2c1`, the LC retention time is reported as 9.82 min. In the case of `Cc1c(N)cccc1N`, the LC retention time is reported as 6.51 min. `CN(C)c1ccc(N)cc1` showed an LC retention time of 6.86 min. In the case of `CN(C)CCC=C1c2ccccc2CCc2ccccc21`, the LC retention time is reported as 11.8 min. Compound `OCC1CCCN2CCCCC12` (stereo unspecified) has an LC retention time of 6.81 min. Compound `Cc1ccc(C=NNC(N)=S)cc1` has an LC retention time of 10.8 min. For `C1CNCCN1`, the LC retention time was 6.38 min. With `Cc1cccc(CN2CCN(CN3C(=O)c4ccccc4C3=O)CC2)c1` the LC retention time was 10.3 min. Work on `Oc1ccc2c3c1OC1C(O)CCC4(O)C(C2)N(CC2CCC2)CCC314` (stereo unspecified) yielded an LC retention time of 8.75 min. For `Cn1c(N)nc2nc[nH]c2c1=O`, the LC retention time was 6.36 min. `CN1CC=C(C=Cc2ccco2)CC1` showed an LC retention time of 8.8 min. Work on `CN(C)c1ccc(C=NNC(N)=S)cc1` yielded an LC retention time of 9.84 min. In the case of `CC1=CC(=O)C2CC1C2(C)C` (stereo unspecified), the LC retention time is reported as 11.4 min. In the case of `Cc1nncn1-c1ccccc1`, the LC retention time is reported as 8.5 min. Compound `CC(C=Cc1ccccc1)=NNC(=O)C(C)Nc1ccc2ccccc2c1` (stereo unspecified) has an LC retention time of 16.2 min. For `CC(C)c1ccc(N)cc1`, the LC retention time was 9 min. With `CN1c2ccccc2CCc2cc(C=O)ccc21` the LC retention time was 16.3 min. For `COc1ccc(CCN2C(=O)C(C)C(Cc3ccc(C)cc3)C2=O)cc1OC` (stereo unspecified), the LC retention time was 15.9 min.
